Tests used:
[1] = Mono- and diester stability study (acid value after heat/reflux and pH variation); type: physicochemical; settings: before treatment; A.O.C.S. T.M. #Cd 3a-63
Protocol: (§1) The following stability study was conducted to determine the structural stability of dimeric urethane compounds according to the present invention compared to mono- and diesters under conditions of pH and thermal variation. Because the decomposition products of the mono- and diesters are alcohol and acid, the degree of decomposition may be accurately determined by measuring the acid value. The measurable decomposition product of the urethane compound is alcohol, which is accurately measured by determining the hydroxyl value.
III. Procedure for Determining Mono- or Diester Stability
The following steps were performed on each ester sample:
(2) Into three ground glass Erlenmeyer flasks, weigh a 20 g sample of the ester.
(3) Into each flask, pipette 50 ml of a neutralized (to phenolpthalein end point) Solution of 70% Isopropanol in water. Boiling stones are added.
(4) Connect flask A to a 4-5 ft. Reflux condenser and heat so that it refluxes 1 ft. High (to approximately 80-90° C.). After connecting flasks A, B and C, proceed to step (7).
(5) Add 10% Aq. Hcl solution to adjust pH of solution in flask B to pH=2.5-3.5. See step (4).
(6) Add 20% Aq. KOH Solution to adjust pH of solution in Flask C to pH=13-14. See step (4).
(8) For each flash, A, B and C, disconnect condenser. Pour Alcoholic solution into wide diameter beaker (A, B and C). Add spin bar. […]

[2] = Urethane stability study (hydroxyl value after heat/reflux and pH variation); type: physicochemical; settings: before treatment; A.O.C.S. hydroxyl value method
Protocol: as §1
IV. Procedure for Urethane Stability
The following steps were performed on each urethane sample:
(1) Run hydroxyl value test.
(2) Follow steps 2-8 for mono- and diester (above).
(3) Run hydroxyl value test on solution in beaker A.
(4) Perform step 10, from above.
(5) Run hydroxyl value test on solution in Beaker B and Beaker C.
Under conditions of this study, that is,
“A”: Product in alcoholic/water solution, heat
“B”: Product in alcoholic/water solution, heat, pH=2.5-3.5
“C”: Product in alcoholic/water solution, heat, pH=13-14

Row | Molecule | ACID V INITIAL [1] [mg KOH/g] | HYDROXYL V INITIAL [2] [mg KOH/g]
1 | CC(C)OC(=O)CCCCC(=O)OC(C)C [DIA, Diisopropyl adipate] | 0.26 | –
2 | CCCCC(CC)COC(=O)NCC1(C)CC(NC(=O)OCC(CC)CCCC)CC(C)(C)C1 (stereo not drawn) [Monoderm I-8, 2-ethyl hexanol dimer with IPDI] | – | 10.3
3 | Diisopropyl dilinoleate [DID] | 0.32 | –

Now from value to molecule:

Row | ACID V INITIAL [1] [mg KOH/g] | HYDROXYL V INITIAL [2] [mg KOH/g] | Molecule
4 | – | 7.3 | Isocetyl alcohol dimer with IPDI [Monoderm I-16]
5 | – | 5.3 | Isostearyl alcohol dimer with IPDI [Monoderm I-18]
6 | – | 16.1 | Octyl dodecanol dimer with IPDI [Monoderm I-20]
